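How tested: cells in 96-well plates exposed to compound for 48 hours at five concentrations. TGI marks complete inhibition of growth.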
Legend:
Test in all cases: NCI-60 cell line screen, 48 h
SR leukemia = tested on: SR leukemia
SNB-75 CNS = tested on: SNB-75 CNS
T-47D breast = tested on: T-47D breast
HCC-2998 colon = tested on: HCC-2998 colon
ACHN renal = tested on: ACHN renal
HT29 colon = tested on: HT29 colon
HL-60(TB) leukemia = tested on: HL-60(TB) leukemia
TK-10 renal = tested on: TK-10 renal
OVCAR-4 ovarian = tested on: OVCAR-4 ovarian
SK-MEL-28 melanoma = tested on: SK-MEL-28 melanoma
SF-539 CNS = tested on: SF-539 CNS
CAKI-1 renal = tested on: CAKI-1 renal
COLO 205 colon = tested on: COLO 205 colon
HCT-116 colon = tested on: HCT-116 colon
786-0 renal = tested on: 786-0 renal
PC-3 prostate = tested on: PC-3 prostate
SK-MEL-2 melanoma = tested on: SK-MEL-2 melanoma
SW-620 colon = tested on: SW-620 colon
UACC-257 melanoma = tested on: UACC-257 melanoma
HCT-15 colon = tested on: HCT-15 colon
HS 578T breast = tested on: HS 578T breast
SF-268 CNS = tested on: SF-268 CNS
UO-31 renal = tested on: UO-31 renal
NCI-H460 lung = tested on: NCI-H460 lung
NCI-H226 lung = tested on: NCI-H226 lung
SN12C renal = tested on: SN12C renal
CCRF-CEM leukemia = tested on: CCRF-CEM leukemia
K-562 leukemia = tested on: K-562 leukemia
MCF7 breast = tested on: MCF7 breast
EKVX NSCLC = tested on: EKVX NSCLC
DU-145 prostate = tested on: DU-145 prostate
SK-MEL-5 melanoma = tested on: SK-MEL-5 melanoma
MOLT-4 leukemia = tested on: MOLT-4 leukemia
M14 melanoma = tested on: M14 melanoma
SF-295 CNS = tested on: SF-295 CNS
OVCAR-5 ovarian = tested on: OVCAR-5 ovarian
U251 CNS = tested on: U251 CNS
OVCAR-8 ovarian = tested on: OVCAR-8 ovarian
MDA-N = tested on: MDA-N
MDA-MB-231 breast = tested on: MDA-MB-231 breast
HOP-62 NSCLC = tested on: HOP-62 NSCLC
OVCAR-3 ovarian = tested on: OVCAR-3 ovarian
IGROV1 ovarian = tested on: IGROV1 ovarian
MALME-3M melanoma = tested on: MALME-3M melanoma
HOP-92 NSCLC = tested on: HOP-92 NSCLC
BT-549 breast = tested on: BT-549 breast
SNB-19 CNS = tested on: SNB-19 CNS
KM12 colon = tested on: KM12 colon
A549 NSCLC = tested on: A549 NSCLC
NCI-H522 lung = tested on: NCI-H522 lung
MDA-MB-435 = tested on: MDA-MB-435
A498 renal = tested on: A498 renal
UACC-62 melanoma = tested on: UACC-62 melanoma
LOX IMVI melanoma = tested on: LOX IMVI melanoma
RPMI-8226 leukemia = tested on: RPMI-8226 leukemia
NCI-H23 lung = tested on: NCI-H23 lung
NCI/ADR-RES ovarian = tested on: NCI/ADR-RES ovarian
SK-OV-3 ovarian = tested on: SK-OV-3 ovarian
RXF 393 renal = tested on: RXF 393 renal

Q: For CC(C)(C)c1cc(O)ccc1O, which TGI (SR leukemia) is on record?
A: 26.6 µM

Q: And the TGI (SNB-75 CNS)?
A: 25.2 µM

Q: And the TGI (T-47D breast)?
A: 41.9 µM

Q: What about the TGI (HCC-2998 colon) of the same molecule?
A: > 17.6 µM

Q: What about the TGI (ACHN renal) of the same molecule?
A: > 100 µM

Q: What about the TGI (HT29 colon) of the same molecule?
A: > 100 µM

Q: And the TGI (HL-60(TB) leukemia)?
A: 26.7 µM

Q: What about the TGI (TK-10 renal) of the same molecule?
A: 22.2 µM

Q: What about the TGI (OVCAR-4 ovarian) of the same molecule?
A: > 71.5 µM

Q: What about the TGI (SK-MEL-28 melanoma) of the same molecule?
A: > 100 µM

Q: What about the TGI (SF-539 CNS) of the same molecule?
A: > 100 µM

Q: What about the TGI (CAKI-1 renal) of the same molecule?
A: > 70.4 µM

Q: What about the TGI (COLO 205 colon) of the same molecule?
A: > 100 µM

Q: What about the TGI (HCT-116 colon) of the same molecule?
A: > 72.9 µM

Q: And the TGI (786-0 renal)?
A: > 67 µM

Q: What about the TGI (PC-3 prostate) of the same molecule?
A: 5.3 µM

Q: And the TGI (SK-MEL-2 melanoma)?
A: 3.18 µM

Q: And the TGI (SW-620 colon)?
A: > 100 µM

Q: What about the TGI (UACC-257 melanoma) of the same molecule?
A: > 21.7 µM

Q: And the TGI (HCT-15 colon)?
A: > 100 µM

Q: What about the TGI (HS 578T breast) of the same molecule?
A: > 100 µM

Q: And the TGI (SF-268 CNS)?
A: > 51.1 µM

Q: What about the TGI (UO-31 renal) of the same molecule?
A: > 72.8 µM

Q: What about the TGI (NCI-H460 lung) of the same molecule?
A: > 21.6 µM

Q: And the TGI (NCI-H226 lung)?
A: > 100 µM

Q: And the TGI (SN12C renal)?
A: > 100 µM

Q: And the TGI (CCRF-CEM leukemia)?
A: 33.2 µM

Q: What about the TGI (K-562 leukemia) of the same molecule?
A: > 100 µM

Q: What about the TGI (MCF7 breast) of the same molecule?
A: > 100 µM

Q: And the TGI (EKVX NSCLC)?
A: > 100 µM

Q: And the TGI (DU-145 prostate)?
A: 23.4 µM

Q: And the TGI (SK-MEL-5 melanoma)?
A: > 100 µM

Q: What about the TGI (MOLT-4 leukemia) of the same molecule?
A: 27.1 µM

Q: And the TGI (M14 melanoma)?
A: > 100 µM

Q: What about the TGI (SF-295 CNS) of the same molecule?
A: > 100 µM

Q: And the TGI (OVCAR-5 ovarian)?
A: > 100 µM

Q: What about the TGI (U251 CNS) of the same molecule?
A: 5.56 µM

Q: What about the TGI (OVCAR-8 ovarian) of the same molecule?
A: > 84.2 µM

Q: And the TGI (MDA-N)?
A: > 100 µM

Q: And the TGI (MDA-MB-231 breast)?
A: 4.97 µM

Q: What about the TGI (HOP-62 NSCLC) of the same molecule?
A: > 100 µM

Q: What about the TGI (OVCAR-3 ovarian) of the same molecule?
A: > 70 µM

Q: And the TGI (IGROV1 ovarian)?
A: > 100 µM

Q: What about the TGI (MALME-3M melanoma) of the same molecule?
A: > 27.6 µM

Q: What about the TGI (HOP-92 NSCLC) of the same molecule?
A: > 79.2 µM

Q: And the TGI (BT-549 breast)?
A: > 100 µM

Q: What about the TGI (SNB-19 CNS) of the same molecule?
A: > 100 µM

Q: What about the TGI (KM12 colon) of the same molecule?
A: > 100 µM

Q: And the TGI (A549 NSCLC)?
A: > 100 µM

Q: What about the TGI (NCI-H522 lung) of the same molecule?
A: > 39.8 µM

Q: What about the TGI (MDA-MB-435) of the same molecule?
A: > 71.2 µM

Q: And the TGI (A498 renal)?
A: > 100 µM

Q: What about the TGI (UACC-62 melanoma) of the same molecule?
A: > 100 µM

Q: What about the TGI (LOX IMVI melanoma) of the same molecule?
A: > 74.6 µM

Q: And the TGI (RPMI-8226 leukemia)?
A: > 93.7 µM

Q: What about the TGI (NCI-H23 lung) of the same molecule?
A: > 100 µM

Q: And the TGI (NCI/ADR-RES ovarian)?
A: > 100 µM

Q: And the TGI (SK-OV-3 ovarian)?
A: > 100 µM

Q: O=C(O)C1CC(O)CN1 (stereo unspecified) was tested. Which TGI (SR leukemia) did it give?
A: > 100 µM

Q: And the TGI (SNB-75 CNS)?
A: > 100 µM

Q: And the TGI (T-47D breast)?
A: > 100 µM

Q: What about the TGI (HCC-2998 colon) of the same molecule?
A: > 100 µM

Q: And the TGI (ACHN renal)?
A: > 100 µM

Q: What about the TGI (HT29 colon) of the same molecule?
A: > 100 µM

Q: What about the TGI (HL-60(TB) leukemia) of the same molecule?
A: > 100 µM

Q: And the TGI (TK-10 renal)?
A: > 100 µM

Q: What about the TGI (OVCAR-4 ovarian) of the same molecule?
A: > 100 µM

Q: And the TGI (SK-MEL-28 melanoma)?
A: > 100 µM

Q: What about the TGI (SF-539 CNS) of the same molecule?
A: > 100 µM

Q: And the TGI (CAKI-1 renal)?
A: > 100 µM

Q: And the TGI (COLO 205 colon)?
A: > 100 µM

Q: What about the TGI (HCT-116 colon) of the same molecule?
A: > 100 µM

Q: And the TGI (786-0 renal)?
A: > 100 µM

Q: What about the TGI (PC-3 prostate) of the same molecule?
A: > 100 µM

Q: And the TGI (RXF 393 renal)?
A: > 100 µM

Q: What about the TGI (SK-MEL-2 melanoma) of the same molecule?
A: > 100 µM

Q: And the TGI (SW-620 colon)?
A: > 100 µM

Q: And the TGI (UACC-257 melanoma)?
A: > 100 µM

Q: And the TGI (HCT-15 colon)?
A: > 100 µM

Q: And the TGI (HS 578T breast)?
A: > 100 µM

Q: What about the TGI (SF-268 CNS) of the same molecule?
A: > 100 µM

Q: And the TGI (UO-31 renal)?
A: > 100 µM

Q: What about the TGI (NCI-H460 lung) of the same molecule?
A: > 100 µM

Q: And the TGI (NCI-H226 lung)?
A: > 100 µM

Q: And the TGI (SN12C renal)?
A: > 100 µM

Q: And the TGI (CCRF-CEM leukemia)?
A: > 100 µM

Q: And the TGI (K-562 leukemia)?
A: > 100 µM

Q: What about the TGI (MCF7 breast) of the same molecule?
A: > 100 µM

Q: What about the TGI (EKVX NSCLC) of the same molecule?
A: > 100 µM

Q: What about the TGI (DU-145 prostate) of the same molecule?
A: > 100 µM

Q: What about the TGI (SK-MEL-5 melanoma) of the same molecule?
A: > 100 µM

Q: What about the TGI (MOLT-4 leukemia) of the same molecule?
A: > 100 µM

Q: And the TGI (M14 melanoma)?
A: > 100 µM

Q: What about the TGI (SF-295 CNS) of the same molecule?
A: > 100 µM

Q: What about the TGI (OVCAR-5 ovarian) of the same molecule?
A: > 100 µM

Q: What about the TGI (U251 CNS) of the same molecule?
A: > 100 µM

Q: What about the TGI (OVCAR-8 ovarian) of the same molecule?
A: > 100 µM

Q: And the TGI (MDA-N)?
A: > 100 µM

Q: What about the TGI (MDA-MB-231 breast) of the same molecule?
A: > 100 µM

Q: And the TGI (HOP-62 NSCLC)?
A: > 100 µM

Q: What about the TGI (OVCAR-3 ovarian) of the same molecule?
A: > 100 µM

Q: What about the TGI (IGROV1 ovarian) of the same molecule?
A: > 100 µM

Q: And the TGI (MALME-3M melanoma)?
A: > 100 µM

Q: And the TGI (HOP-92 NSCLC)?
A: > 100 µM

Q: What about the TGI (BT-549 breast) of the same molecule?
A: > 100 µM

Q: And the TGI (SNB-19 CNS)?
A: > 100 µM

Q: And the TGI (KM12 colon)?
A: > 100 µM

Q: What about the TGI (A549 NSCLC) of the same molecule?
A: > 100 µM

Q: And the TGI (MDA-MB-435)?
A: > 100 µM

Q: What about the TGI (A498 renal) of the same molecule?
A: > 100 µM

Q: And the TGI (UACC-62 melanoma)?
A: > 100 µM

Q: And the TGI (LOX IMVI melanoma)?
A: > 100 µM

Q: What about the TGI (RPMI-8226 leukemia) of the same molecule?
A: > 100 µM

Q: What about the TGI (NCI-H23 lung) of the same molecule?
A: > 100 µM

Q: And the TGI (NCI/ADR-RES ovarian)?
A: > 100 µM

Q: And the TGI (SK-OV-3 ovarian)?
A: > 100 µM
